Measurements: patent US4136192A, “4-Hydroxy-3-nitro (cyano) coumarins” (Beecham Group Limited, priority 1975, dated 1979)
pIC50: −log10 of the molar value. Where two headings read alike, the source gives them in different places.

Legend:
PCA response = assay: Passive Cutaneous Anaphylaxis (rat PCA); assay type: in vivo; conditions: iv, i.v. just before ovalbumin challenge, male Wistar rats
Method: Serum containing heat labile homocytotropic antibody was raised in rats to crystallized ovalbumin XOA by the method of Mota (I. Mota, Immunology, 7, 681 (1964)) using Bordettela pertussis vaccine as adjuvant.
Passive cutaneous anaphylaxis (PCA) was carried out by a method based on that of Ovary and Bier (A. Ovary and O. G. Bier, Proc. Soc. Exp. Biol. Med 81, 584, (1952)) as modified by Goose and Blair.
Male Wistar rats of 250-300 g were given 0.1 ml of each of six twofold serial dilutions of pooled antiserum in 0.9% saline injected intradermally into separate sites on their shaved backs. Later (72 hr) the animals were challenged by intravenous injection of 0.3 ml of a 1% solution of ovalbumin in an isotonic solution of saline buffered with 0.5M, pH 7.2, Sorenson Buffer (PBS), mixed with 0.2 ml of a 5% solution of Pontamine Sky Blue (6BX C.I. 24410, Raymond A. Lamb, London) in isotonic saline. The rats were killed after 20 min and the diameter of the blue wheals at the antibody injection sites was measured on the outer surface of the skin. The starting dilution of the serum was adjusted so that there was no response, after challenge, at the injection site of the highest dilution and a maximum response at the lowest dilutions. Typically six twofold serial dilutions of the serum from 1/4 to 1/128 were used.
Compounds were tested for their ability to reduce the diameter of the wheels at those intradermal sites which in control animals gave less than maximum response. Each dose of the compound was administered intravenously to six rats in isotonic saline, adjusted to pH7 with sodium bicarbonate if necessary (2ml/kg body weight) just before intravenous challenge with ovalbumin. Control groups of six animals were given the same volume of carrier fluid at the same time.
The results were calculated as follows. % inhibition of PCA=100 (1 - a/b) where a=the sum of the diameters of the wheals produced in the test animal at the sites of antibody dilutions as used in control groups and b=the mean sum of the diameters of the wheals produced in the control group of animals at those antibody sites where at least five out of six of the animals gave less than maximum response. A typical variation in the control group of animals was SEN±6%.
The dose of the compound required to inhibit the PCA response by 50% was obtained from the log dose-response curve.

[1] = system: slow reacting substance of anaphylaxis (SRS-A); assay: SRS-A antagonism on isolated guinea pig ileum; set-up: species or system guinea pig ileum (SRS-A from rat); conditions: rat SRS-A
From the text: The compounds have been evaluated as direct antagonists of slow reacting substance of anaphylaxis (SRS-A) by assay using the isolated guinea pig ileum.
SRS-A rat was obtained from the peritoneal cavity of the rat after passive peritoneal anaphylaxis by a method based on that of R. P. Orange, D. J. Stechschulte and K. F. Austen, J. Immunology, 105 1087 (1970) as described by B. A. Spicer, J. W. Ross and H. Smith, Clin. exp. Immunol. 1975, 21, 419. The sensitizing serum containing reaginic antibody was produced in rats as described by B. A. Spicer, et. al. ibid.
2 ml of a 1 in 5 dilution of the sensitizing serum was injected by the peritoneal route into recipient rats and after 2 hours, 5 ml of tyrode solution containing 0.4 mg/ml ovalbumin (Sigma Grade III) and 50 μg/ml heparin was injected by the same route. Five minutes after challenge the rats were stunned and bled and the peritoneal fluids collected into polycarbonate tubes in ice. After centrifugation at 150 g for 5 minutes the supernatants were combined, heated in a boiling water bath for 5 minutes, cooled and stored at -20° C. The combined peritioneal fluids contained SRS-A and were used in the antagonism studies.
The SRS-A assays were carried out on isolated strips of guinea pig ileum in tyrode solution containing atropine 5 × 10^-7 M and mepyramine 10^-6 M as described by W. E. Brocklehurst, J. Physiology, 151, 416 (1960).
The activity of the antagonists was determined by their ability to reduce submaximal responses induced by SRS-A. The antagonists were added to a 4 ml bath in 0.1 ml volumes in aqueous solution half a minute before the addition of SRS-A and were present during induced contraction. Two or three concentrations of antagonists were used and the percentage inhibition of the SRS-A response plotted against the bath concentration of antagonist. The line of best fit was drawn and the concentration to cause 50% inhibition IC50 read graphically.

[2] = read-out: Rat PCA: Dose given i.v. to effect a 50% inhibition of the PCA response
[3] = as first table, unit inferred, isolated guinea pig ileum, read-out: SRS-A antagonism on Guinea Pig Ileum: Approximate concentration to give inhibition of a than maximal response to SRS-A
[4] = isolated guinea pig ileum strips, tyrode with atropine and mepyramine, 50% inhibition per method, read-out: SRS-A antagonism on Guinea Pig Ileum: Approximate concentration to give inhibition of a than maximal response to SRS-A
[5] = second results table, unit inferred, isolated guinea pig ileum, read-out: SRS-A antagonism on Guinea Pig ileum: Approximate concentration to give 50% inhibition of a less than maximal response to SRS-A
[6] = second results table, read-out: Rat PCA: Dose given i.v. to effect a 50% inhibition of PCA response

Question: `O=c1oc2cc(OCCc3ccc(F)cc3)ccc2c(O)c1[N+](=O)[O-]` [Example 117] was tested. Which ED50 (PCA response; [2]) did it give?
Answer: 1 mg/kg

Question: For `CCCc1c(OCCOc2ccc3c(O)c([N+](=O)[O-])c(=O)oc3c2)ccc(C(C)=O)c1O` [Example 127, 7-(2-[4-Acetyl-3-hydroxy-2-n-propylphenoxy]ethoxy)-4-hydroxy-3-nitrocoumarin], which ED50 (PCA response; [2]) is on record?
Answer: ~2 mg/kg

Question: Which ED50 (PCA response; [2]) does the source give for `CCCc1cc(C(C)=O)ccc1OCC(O)COc1ccc2c(O)c([N+](=O)[O-])c(=O)oc2c1` (stereo not drawn) [Example 142, 7-(3-[4-Acetyl-2-n-propylphenoxy]-2-hydroxypropoxy)-4-hydroxy-3-nitrocoumarin] here?
Answer: < 1 mg/kg

Question: How did the ED50 (PCA response; [2]) turn out when `CCc1cc(C(C)=O)c(O)cc1OCC(O)COc1ccc2c(O)c([N+](=O)[O-])c(=O)oc2c1` (stereo not drawn) [Example 145, 7-(3-[4-Acetyl-2-ethyl-5-hydroxy-phenoxy]-2-hydroxy-propoxy)-4-hydroxy-3-nitrocoumarin] was run?
Answer: 2 mg/kg

Question: `CCCc1c(OCC(O)COc2ccc3c(O)c([N+](=O)[O-])c(=O)oc3c2C)ccc(C(C)=O)c1O` (stereo not drawn) [Example 147, 7-(3-[4-Acetyl-3-hydroxy-2-n-propyl-phenoxy]-2-hydroxy-propoxy)-4-hydroxy-8-methyl-3-nitro-coumarin] was tested. Which pIC50 [1, 3] did it give?
Answer: 8.00

Question: And the ED50 (PCA response; [2])?
Answer: < 2 mg/kg

Question: Which results are given for `CCCc1c(OCC(O)COc2ccc3c(O)c([N+](=O)[O-])c(=O)oc3c2CCC)ccc(C(C)=O)c1O` (stereo not drawn) [Example 148, 7-(3-[4-Acetyl-3-hydroxy-2-n-propyl-phenoxy]-2-hydroxy-propoxy)-4-hydroxy-3-nitro-8-n-propyl-coumarin]?
Answer: pIC50 [1, 4]: 7.00; ED50 (PCA response; [2]): < 1 mg/kg

Question: Which ED50 (PCA response; [2]) does the source give for `CCCc1c(OCC(O)COc2ccc3c(O)c([N+](=O)[O-])c(=O)oc3c2)ccc(C(=O)CC)c1O` (stereo not drawn) [Example 149] here?
Answer: 2 mg/kg

Question: With `O=c1oc2cc(OCCCCCCOc3ccccc3)ccc2c(O)c1[N+](=O)[O-]` [Example 154, 4-Hydroxy-3-nitro-7-(6-phenoxyhexoxy) coumarin] as the compound, how does the pIC50 [1, 4] read?
Answer: 5.00

Question: And the ED50 (PCA response; [2])?
Answer: 1 to 2 mg/kg

Question: `Cc1ccccc1OCCCOc1ccc2c(O)c([N+](=O)[O-])c(=O)oc2c1` [Example 155, 4-Hydroxy-7-(3-[2-methylphenoxy]propoxy)-3-nitrocoumarin] was tested. Which pIC50 [1, 4] did it give?
Answer: 7.00

Question: What about the ED50 (PCA response; [2]) of the same compound?
Answer: 1 to 2 mg/kg

Question: Which results are given for `CCCc1cc(F)ccc1OCC(O)COc1ccc2c(O)c([N+](=O)[O-])c(=O)oc2c1` (stereo not drawn) [Example 164, 7-(3-[4-Fluoro-2-hydroxypropoxy)-4-hydroxy-3-nitro-coumarin]?
Answer: pIC50 [1, 3]: 7.00; ED50 (PCA response; [2]): 1 mg/kg

Question: Which ED50 (PCA response; [2]) does the source give for `CCCc1c(O)c(C(C)=O)cc([N+](=O)[O-])c1OCCOc1ccc2c(O)c([N+](=O)[O-])c(=O)oc2c1` [Example 165, 7-[2-(4-Acetyl-3-hydroxy-6-nitro-2-n-propylphenoxy)ethoxy]-4-hydroxy-3-nitrocoumarin] here?
Answer: 1 mg/kg

Question: `CCCc1c(O)c(C(C)=O)cc([N+](=O)[O-])c1OCC(O)COc1ccc2c(O)c([N+](=O)[O-])c(=O)oc2c1C` (stereo not drawn) [Example 166, 7-[3-(4-Acetyl-3-hydroxy-6-nitro-2-n-propylphenoxy)-2-hydroxypropoxy]-4-hydroxy-8-methyl-3-nitrocoumarin] was tested. Which pIC50 [1, 3] did it give?
Answer: 7.00

Question: What about the ED50 (PCA response; [2]) of the same compound?
Answer: < 1 mg/kg

Question: What does the source list for `O=C1c2ccc(OCCCOc3ccccc3)cc2C(=O)C1[N+](=O)[O-]` (stereo not drawn) [Example 182, 2-Nitro-5-(3-phenoxypropoxy)indan-1,3-dione]?
Answer: pIC50 [1, 5]: 7.00; ED50 (PCA response; [6]): < 1 mg/kg

Question: For `O=C1c2ccc(OCCCc3ccccc3)cc2C(=O)C1[N+](=O)[O-]` (stereo not drawn) [Example 183, 2-Nitro-5-(3-phenylpropoxy)indan-1,3-dione], which ED50 (PCA response; [6]) is on record?
Answer: < 1 mg/kg

Question: How did the pIC50 [1, 5] turn out when `Cc1cc(C)c(C)c(OCCCOc2ccc3c(c2)C(=O)C([N+](=O)[O-])C3=O)c1` (stereo not drawn) [Example 184, 2-Nitro-5-[3-(2,3,5-trimethylphenoxy)propoxy]indan-1,3-dione] was run?
Answer: 6.00

Question: And the ED50 (PCA response; [6])?
Answer: 1 mg/kg

Question: How did the pIC50 [1, 5] turn out when `N#CC1C(=O)c2ccc(OCCCOc3ccccc3)cc2C1=O` (stereo not drawn) [Example 188, 2-Cyano-5-(3-phenoxypropoxy)indan-1,3-dione] was run?
Answer: 6.00

Question: And the ED50 (PCA response; [6])?
Answer: > 2 mg/kg

Question: `N#Cc1c(O)c2ccc(OCCCOc3ccccc3)cc2oc1=O` [Example 204, 3-Cyano-4-hydroxy-7-(3-phenoxypropoxy) coumarin] was tested. Which pIC50 [1, 5] did it give?
Answer: 6.00

Question: What about the ED50 (PCA response; [6]) of the same compound?
Answer: 2 mg/kg
